Data reported in US4005213A, “2,5-Substituted-1,3,4-thiadiazoles as fungicides” (Schering Aktiengesellschaft, priority 1968, dated 1977).

Columns and labels:
[1] = test system: Pythium ultimum; experiment: Pea test in soil inoculated with Pythium ultimum (Example 2); assay type: in vivo; set-up: key to Root evaluation (1-4): 4 = white roots, no necroses … 1 = severe necroses, roots rotted; details: for Root evaluation (1-4): 3 weeks; for Number of sound peas after 3 wks.: 25 grains seeded
Description: Steamed compost soil was inoculated with mycelium of Pythium ultimum. […] The following table lists the number of germinated sound peas, the weight of the fresh plant, and a root evaluation after a cultivation period of 3 weeks at 22°-25° C.
4 = white roots, without fungus necroses
3 = white roots, slight fungus necroses
2 = brown roots, more intense fungus necroses
1 = severe fungus necroses, roots rotted

[2] = test system: Damping-off Fungi; experiment: Cotton seed disinfection in normal compost soil (Example 6); assay type: in vivo; details: 100 mg active ingr. per kg of seed, 15 days, 22°-25° C.
Description: Cotton seeds disinfected with 10% formulations were seeded in normal compost soil (Damping-off Fungi), 25 grains per concentration. After a cultivation time of 15 days at 22°-25° C., the number of germinated sound cotton seedlings and their weight as fresh plants were determined.

[3] = test system: Aspergillus niger; experiment: Agar test, Aspergillus niger (Example 7); assay type: cell-based; details: 10 ppm in malt extract agar, 5 days at 22° C.; control 100
Description: (§1) The fungicidal action of the agents according to the invention was tested in artificial nutrient media against plant-pathogenic fungi in Petri dishes (agar test). The procedure was to sterilize the medium consisting of 2% malt extract and 1.5% agar-agar powder. Before the solidification of the medium, the active substances were added to it, mixing thoroughly, so that the medium received 10 parts of active substance per million (ppm). After the solidification of the medium, the latter was inoculated with a platinum dropper which contained 100 spores each of the fungi to be tested, and after 5 days at 22° C., an evaluation was made by measuring the diameter of the colonies in mm.

[4] = test system: Rhizoctonia solani; experiment: Pea test in soil inoculated with Rhizoctonia solani (Example 3); assay type: in vivo; details: for Root evaluation (1-4): 3 weeks
Text: Steamed compost soil was inoculated with mycelium of Rhizoctonia solani. After homogeneous mixture of the products with the infested soil, the products were present in the form of 20% powder preparations, the seeding of 25 grains of marrow peas of the variety Miracle of Kelvedon per concentration was effected without waiting period in clay dishes holding 1 liter of soil. The table lists the number of germinated sound peas, the weight of the fresh plant, and a root evaluation after a cultivation period of 3 weeks at 22°-25° C.

[5] = test system: Pythium ultimum; experiment: Limit concentration of soil-fungicidal effectiveness, Pythium ultimum infested soil, peas (Example 1); assay type: in vivo; details: Globisporangium ultimum, 20 to 23 days, 22°-25° C., germination at least 90% vs steamed soil
Description: (§2) Limit concentrations of the soil-fungicidal effectiveness at homogeneous mixture of the products with the infested soil. Basic condition in the evaluation are a sound root formation without fungus necroses and germination of the seed of at least 90% compared with the result obtained in steamed soil. Per concentration there were seeded 25 grains of peas of the variety "Miracle of Kelvedon" (marrow pea) without a waiting period. the cultivation time in the tests was 20 to 23 days at a temperature of 22°-25° C. Four commercial products were included in the test series.
Pythium ultimum: Steamed compost soil was inoculated with mycelium of Pythium ultimum

[6] = test system: Meloidogyne incognita; experiment: Nematocidal action against root gall nematodes, cucumber (Example 8); assay type: in vivo; details: reduction of attack, 30 days
Description: The products as 20% powder preparations were homogeneously admixed with a compost soil heavily infested by root gall nematodes. Without a waiting period, 20 cucumber seeds per concentration were seeded. After a cultivation time of 30 days at a temperature of 23°-25° C., the nematocidal action was evaluated by counting the root galls formed in the waterbath. The following table states the reduction of attack in percent. In the control, an average of 90 root galls per seedling had formed.

[7] = test system: Stemphylium ilicis; experiment: Agar test, Stemphylium ilicis (Example 7); assay type: cell-based; details: 10 ppm in malt extract agar, 5 days at 22° C.; control 100
Description: as §1

[8] = test system: Pythium ultimum; experiment: Fungistatic and fungicidal action on Pythium ultimum of preparations with varying active ingredient percentages (Example 4); assay type: in vivo; details: for Number of sound peas after 3 wks.: 25 grains seeded
Text: Comparison of the fungistatic and fungicidal action on Pythium ultimum when using preparations with varying active ingredient percentages on siliceous clay. Steamed compost soil was inoculated with mycelium of Pythium ultimum. After forming a homogeneous mixture of the products with the infested soil, […], the seeding of 25 grains of marrow peas of the variety Miracle of Kelvedon per concentration in clay dishes holding 1 liter of soil followed without a waiting period. In the table is stated the number of germinated sound peas, the weight of the fresh plant, and a root evaluation after a cultivation period of 3 weeks at 22°-25° C.

[9] = test system: Pyrenochaeta lycopersici; experiment: Control of Pyrenochaeta lycopersici, corky root disease of the tomato, open field (Example 9); assay type: in vivo; details: for Weight of single tomato (% of untreated): 0 g = 100%; for Tomatoes per plant / Weight of single tomato / Yield per plant: 10% granulate
Text: Control of Pyrenochaeta lycopersici, corky root disease of the tomato.
On a naturally infested open field area, 2-dichloromethyl-5-methylsulfonyl-1,3,4-thiadiazole was scattered as a 10% granulate formulation and hoed in 20 cm deep. […] After a reaction period of 3 weeks, tomato plants of the variety "Ronald-M" which were 8 weeks old were set out at a distance from each other of 50 × 70 cm. The harvest results indicated in the table are average values of 40 plants per lot and refer to harvested ripe tomatoes.

[10] = acute oral toxicity in rats; details: rat, in vivo
[11] = test system: Rhizoctonia solani; experiment: Limit concentration of soil-fungicidal effectiveness, Rhizoctonia solani infested soil, peas (Example 1); assay type: in vivo; details: 20 to 23 days, 22°-25° C., germination at least 90% vs steamed soil
Description: as §2
Rhizoctonia solani: Steamed compost soil was inoculated with mycelium of Rhizoctoniz solani.

[12] = test system: Helminthosporium sativum; experiment: Agar test, Helminthosporium sativum (Example 7); assay type: cell-based; details: 10 ppm in malt extract agar, 5 days at 22° C.; control 100
Description: as §1

[13] = test system: Colletotrichum gloeosporioides; experiment: Agar test, Colletotrichum gloeosporioides (Example 7); assay type: cell-based; details: 10 ppm in malt extract agar, 5 days at 22° C.; control 100
Description: as §1

[14] = test system: Botrytis cinerea; experiment: Agar test, Botrytis cinerea (Example 7); assay type: cell-based; details: 10 ppm in malt extract agar, 5 days at 22° C.; control 100
Description: as §1

[15] = 10 mg active ingr. per liter of soil
[16] = 20 mg active ingr. per liter of soil
[17] = 30 mg active ingr. per liter of soil
[18] = 40 mg active substance per liter of soil
[19] = 60 mg active substance per liter of soil
[20] = 5% formulation, 6 mg active ingr. per liter of soil
[21] = 5% formulation, 10 mg active ingr. per liter of soil
[22] = 10% formulation, 10 mg active ingr. per liter of soil
[23] = 20% formulation, 6 mg active ingr. per liter of soil
[24] = 10 g active ingr. per square meter
[25] = 20 g active ingr. per square meter
[26] = 200 mg active ingr. per liter of soil

Row | Compound | Root evaluation (1-4) [1, 15] | Root evaluation (1-4) [1, 16] | Root evaluation (1-4) [1, 17] | Sound plants in % [2] | diameter of the colonies, Aspergillus niger [3] | Root evaluation (1-4) [4, 16] | Root evaluation (1-4) [4, 17] | minimal effective concentration [5] | Nematocidal action in % (Meloidogyne incognita) [6, 18] | Nematocidal action in % (Meloidogyne incognita) [6, 19] | diameter of the colonies, Stemphylium ilicis [7] | minimal effective concentration [11] | further results
1 | C[S+]([O-])c1nnc(C(Cl)Cl)s1 (centres unmarked) [Compound 3, 2-dichloromethyl-5-methylsulfinyl-1,3,4-thiadiazole] | 4 | 4 | 4 | 100% | 50 mm | 1 | 4 | 10 µg/mL | 100% | 100% | 0 mm |  | Number of sound peas after 3 wks. ([4]; 10 mg active ingr. per liter of soil, 25 grains seeded): 0
2 | CS(=O)(=O)c1nnc(C(Cl)Cl)s1 [Compound 17, 2-dichloromethyl-5-methylsulfonyl-1,3,4-thiadiazole] | 4 | 4 | 4 | 100% | 0 mm | 4 | 4 | 10 µg/mL | 90% | 94% | 0 mm |  | Number of sound peas after 3 wks. [1, 16]: 24; Number of sound peas after 3 wks. [1, 17]: 24; Weight of fresh plant [8, 20]: 9 g; Number of sound peas after 3 wks. [8, 20]: 12; Weight of fresh plant [8, 21]: 20 g; Number of sound peas after 3 wks. [8, 21]: 24; Weight of fresh plant ([8]; 10% formulation, 6 mg active ingr. per liter of soil): 15 g; Weight of fresh plant [8, 22]: 24 g; Number of sound peas after 3 wks. [8, 22]: 22; Weight of fresh plant [8, 23]: 17 g; Number of sound peas after 3 wks. [8, 23]: 22; Weight of fresh plant ([8]; 20% formulation, 10 mg active ingr. per liter of soil): 16 g; Weight of single tomato (% of untreated) [9, 24]: 110%; Tomatoes per plant [9, 24]: 27; Weight of single tomato [9, 24]: 66 g; Yield per plant [9, 24]: 1774 g; Weight of single tomato (% of untreated) [9, 25]: 130%; Tomatoes per plant [9, 25]: 28; Weight of single tomato [9, 25]: 78 g; Yield per plant [9, 25]: 2209 g
3 | CS(=O)(=O)c1nnc(C(Cl)(Cl)Cl)s1 [Compound 21, 2-trichloromethyl-5-methylsulfonyl-1,3,4-thiadiazole] |  |  |  | 100% | 0 mm | 4 | 4 | 40 µg/mL |  |  | 0 mm |  | LD50 [10]: 717 mg/kg; Root evaluation (1-4) [4, 15]: 4
4 | CS(=O)(=O)c1nnc(C(F)(F)Cl)s1 [Compound 54, 2-chlorodifluoromethyl-5-methylsulfonyl-1,3,4-thiadiazole] |  |  |  |  |  |  |  | 10 µg/mL |  |  |  | 20 µg/mL | 
5 | C[S+]([O-])c1nnc(C(F)(F)Cl)s1 (centres unmarked) [Compound 55, 2-chlorodifluoromethyl-5-methylsulfinyl-1,3,4-thiadiazole] |  |  |  |  |  |  |  | 10 µg/mL |  |  |  | 10 µg/mL | 
6 | S=C([S-])NCCNC(=S)[S-].[Zn+2] [Zinc ethylene-bis-dithiocarbamate, reference compound] |  |  |  |  | 78 mm |  |  |  |  |  | 55 mm |  | diameter of the colonies, Helminthosporium sativum [12]: 50 mm; Root evaluation (1-4) [1, 26]: 1; Number of sound peas after 3 wks. [1, 26]: 14; diameter of the colonies, Colletotrichum gloeosporioides [13]: 81 mm; diameter of the colonies, Botrytis cinerea [14]: 36 mm
